Reference: PubChem BioAssay (NCI)
Several values for one entry are separate records, joined by “and”; a condition that tells them apart may be missing. Equal entries are not always repeated.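 Growth conditions: 96-well plates. Treatment: test compound, 48 hours, 5 concentrations. Analysis: linear interpolation between bracketing concentrations; unreached endpoints set to highest concentration. Here, GI50 denotes the concentration required for 50% inhibition of growth. TGI denotes the concentration required for complete inhibition of growth.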

Experiments:
Assay in all cases: inhibition of tumour cell growth, NCI panel, 48 h
786-0 renal = system: 786-0 renal
HCT-116 colon = system: HCT-116 colon
HOP-92 NSCLC = system: HOP-92 NSCLC
LOX IMVI melanoma = system: LOX IMVI melanoma
NCI-H23 lung = system: NCI-H23 lung
SF-539 CNS = system: SF-539 CNS
SNB-19 CNS = system: SNB-19 CNS
UO-31 renal = system: UO-31 renal
SR leukemia = system: SR leukemia
PC-3 prostate = system: PC-3 prostate

Structure (SMILES) | TGI (786-0 renal) | TGI (HCT-116 colon) | TGI (HOP-92 NSCLC) | TGI (LOX IMVI melanoma) | TGI (NCI-H23 lung) | TGI (SF-539 CNS) | TGI (SNB-19 CNS) | TGI (UO-31 renal) | TGI (SR leukemia) | GI50 (786-0 renal) | GI50 (HCT-116 colon) | GI50 (HOP-92 NSCLC) | GI50 (LOX IMVI melanoma) | GI50 (NCI-H23 lung) | GI50 (SF-539 CNS) | GI50 (SNB-19 CNS) | GI50 (SR leukemia) | GI50 (UO-31 renal) | GI50 (PC-3 prostate) | TGI (PC-3 prostate)
CCCCCCCCCCCCCCCCc1c(C(=O)OC)nc(NC#N)[nH]c1=O | > 25 µM | > 25 µM | > 25 µM | > 25 µM | > 25 µM | > 25 µM | > 25 µM | > 25 µM | – | – | – | – | – | – | – | – | – | – | – | –
C=CC12CCCCC1CC(C(=O)OC)=C(O)C2 (stereo not given) | > 100 µM | > 100 µM | > 100 µM | > 100 µM | > 100 µM | > 100 µM | > 100 µM | > 100 µM | > 100 µM | – | – | – | – | – | – | – | – | – | – | –
COC(=O)c1c2c(c(C)[n+]([O-])c1C)C(=O)C(NCc1ccccc1)=CC2=O | 23.7 µM | 9.48 µM | 6.61 µM | 10.2 µM | 6.09 µM | 5.3 µM | 11.2 µM | 10.1 µM | 31.4 µM | 3.68 µM | 2.47 µM | 2.8 µM | 2.72 µM | 2.03 µM | 2.29 µM | 3.25 µM | 3 µM | 2.9 µM | – | –
N#CC(Sc1ccccc1)C(N)=O (stereo not given) | > 100 µM | > 100 µM | > 100 µM | > 100 µM | > 100 µM | > 100 µM | > 100 µM | > 100 µM | > 100 µM | – | – | – | – | – | – | – | – | – | – | –
COc1cc2c3c(n(CCCN=[N+]=[N-])c(=O)c2cc1OC)-c1ccccc1C3=O | 69.2 µM | 17.8 µM | 68.9 µM | 9.14 µM | 21.8 µM | 22.8 µM | > 100 µM | > 100 µM | – | 4.68 µM | 1.81 µM | 7 µM | 1.33 µM | 3.23 µM | 4.73 µM | 52.7 µM | – | > 100 µM | > 100 µM | > 100 µM
CC1OC(n2cc(F)c(=O)[nH]c2=O)CCC1=O (stereo not given) | > 100 µM | > 100 µM | > 100 µM | > 100 µM | – | 88.7 µM | > 100 µM | > 100 µM | > 100 µM | – | – | – | – | – | – | – | – | – | – | –
c1cc[c]([Ge]([O]c2cccc3cccnc23)([c]2ccccc2)[c]2ccccc2)cc1 | 15.7 µM | 12.7 µM | 25.5 µM | 13.2 µM | 8.16 µM | 11.3 µM | 19.5 µM | 23.7 µM | – | 4.7 µM | 3.41 µM | 12.4 µM | 3.92 µM | 2.96 µM | 3.36 µM | 7.15 µM | – | 11.5 µM | – | –
COc1ccc(-c2cnc(-c3ccc(OC)cc3)n2-c2cc(OC)c(OC)c(OC)c2)cc1 | 61.4 µM | > 100 µM | 52.1 µM | > 100 µM | > 100 µM | 54.9 µM | 60.5 µM | 50 µM | – | 24.2 µM | 30.9 µM | 19.7 µM | 34.5 µM | 28.6 µM | 23.9 µM | 19.8 µM | – | 18.2 µM | 29.4 µM | > 100 µM
O=CCCn1[nH]c(=O)ccc1=O | > 100 µM | > 100 µM | > 100 µM | > 100 µM | > 100 µM | > 100 µM | > 100 µM | > 100 µM | > 100 µM | – | – | – | – | – | – | – | – | – | – | –
COc1ccc(C)c2sc(N(Cc3cccnc3)C(=O)c3ccc(C#N)cc3)nc12 | > 100 µM | > 100 µM | > 100 µM | > 100 µM | > 100 µM | > 100 µM | > 100 µM | > 100 µM | – | 56.8 µM | 29.2 µM | 20.3 µM | 40.8 µM | 43.5 µM | 55.6 µM | 94.7 µM | – | 23.4 µM | 30.2 µM | > 100 µM
COc1ccc(O)c(/C=N\Nc2ccccc2)c1 | > 100 µM | > 100 µM | > 100 µM | 13 µM | 67.7 µM | 68.4 µM | > 100 µM | > 100 µM | – | – | – | – | – | – | – | – | – | – | – | > 100 µM
O=S1Nc2cccc(C(F)(F)F)c2S1 (stereo not given) | > 100 µM | > 100 µM | 73.2 µM | 74.1 µM | > 100 µM | > 100 µM | > 100 µM | > 100 µM | > 100 µM | – | – | – | – | – | – | – | – | – | – | –
C=CCCn1nc(-c2ccccc2)oc1=O | > 100 µM | > 100 µM | > 100 µM | > 100 µM | > 100 µM | > 100 µM | > 100 µM | > 100 µM | > 100 µM | – | – | – | – | – | – | – | – | – | – | –
CC[C@]12CN3CCc4c([nH]c5ccccc45)[C@@](C(=O)OC)(c4cc5c(cc4OC)N(C)[C@H]4[C@@](O)(C(=O)OC)[C@H](OC(C)=O)[C@]6(CC)C=CCN7CC[C@]54[C@@H]76)CC(C3)[C@H]1O2 (stereo not given in full) | > 100 µM | > 100 µM | > 100 µM | > 100 µM | > 68.1 µM | 1.8 µM and 9.39 µM | > 100 µM | > 88.5 µM | – | 1.3 µM | 0.147 µM | 1.29 µM | 0.145 µM | 0.205 µM | 0.128 µM | 0.214 µM | – | 1.83 µM | 0.222 µM | > 100 µM
O=C1CCCc2ccc([N+](=O)[O-])c(O)c21 | > 100 µM | > 100 µM | > 100 µM | > 100 µM | > 100 µM | > 100 µM | > 100 µM | > 100 µM | > 100 µM | – | – | – | – | – | – | – | – | – | – | –
O=Cc1ccc(-c2ccc(-c3nc4ccccc4s3)cc2)o1 | > 100 µM | > 100 µM | > 100 µM | > 100 µM | > 100 µM | – | > 100 µM | > 100 µM | – | > 100 µM | > 100 µM | 94.3 µM | 60.2 µM | 67.7 µM | – | > 100 µM | – | > 100 µM | 45.2 µM | > 100 µM
C[C@@H]1CC[C@@]2(C)OC(c3ccccc3)[C@H](CO)N2C1=O (stereo not given in full) | > 100 µM | > 100 µM | > 100 µM | > 100 µM | > 100 µM | > 100 µM | > 100 µM | – | > 100 µM | – | – | – | – | – | – | – | – | – | – | –
COc1ccc2cc3c4cc(OC)c(OC)cc4ccn3c2c1 | > 100 µM | – | > 100 µM | > 100 µM | > 100 µM | > 100 µM | > 100 µM | > 100 µM | > 100 µM | – | – | – | – | – | – | – | – | – | – | –
O/N=C1/CCCC/C1=C\c1ccc(Cl)c(Cl)c1 | > 100 µM | 35.8 µM | – | 42.9 µM | > 100 µM | 41.1 µM | 91.6 µM | 46.2 µM | – | – | – | – | – | – | – | – | – | – | – | –
COc1ccc(/C=C/c2onc3c(=O)n(C)nc(-c4ccccc4)c23)cc1 | > 100 µM | > 100 µM | 80.5 µM | > 100 µM | > 100 µM | > 100 µM | > 100 µM | > 100 µM | – | – | – | – | – | – | – | – | – | – | – | –
NC1=NN(c2ccccc2)C(=O)C1C(=O)C(=O)Nc1ccccc1 (stereo not given) | > 100 µM | > 100 µM | > 100 µM | > 100 µM | > 100 µM | > 100 µM | > 100 µM | > 100 µM | – | – | – | – | – | – | – | – | – | – | – | –
N#Cc1c(N)nc2c(c1-c1ccc(Cl)cc1)COc1ccc(F)cc1-2 | 72.8 µM | > 100 µM | > 100 µM | 40.2 µM | > 100 µM | 40.1 µM | – | 39.2 µM | – | 28.7 µM | 36.8 µM | 31.6 µM | 18.4 µM | 28.4 µM | 20.1 µM | – | – | 13.8 µM | 29.7 µM | 65.7 µM
O=C(O)c1cnc2c(ccc3[nH]cccc32)c1=O | > 100 µM | > 100 µM | – | > 100 µM | > 100 µM | > 100 µM | > 100 µM | > 100 µM | > 100 µM | – | – | – | – | – | – | – | – | – | – | –
CCNCC(=O)Nc1ccc2c(c1)C(=O)c1ccc(NC(=O)CNCC)cc1C2=O | 7.92 µM | 7.52 µM | 12.5 µM | 6.58 µM | 14.8 µM | 16.2 µM | 12.1 µM | 8.9 µM | – | – | – | – | – | – | – | – | – | – | – | > 100 µM
CCN1/C(=C/C(C)=C/c2sc3ccc4ccccc4c3[n+]2CC)Sc2ccc3ccccc3c21 | 1.09 µM | 0.293 µM | 0.612 µM | 0.465 µM | 1.19 µM | 1.01 µM | – | 0.571 µM | – | 0.268 µM | 0.127 µM | 0.163 µM | 0.183 µM | 0.108 µM | 0.227 µM | – | – | 0.181 µM | 0.085 µM | 1.46 µM
CCOC(=O)C1CC(=O)C=C2CCCCC21 (stereo not given) | > 100 µM | > 100 µM | > 100 µM | > 100 µM | > 100 µM | > 100 µM | > 100 µM | > 100 µM | – | – | – | – | – | – | – | – | – | – | – | –
COc1ccc2c(n1)Sc1nc3ccccc3nc1N2 | > 100 µM | > 100 µM | > 100 µM | > 100 µM | > 100 µM | 50.1 µM | > 100 µM | 89.1 µM | – | – | – | – | – | – | – | – | – | – | – | > 100 µM
COc1ccc(Sc2[nH]c(C=O)c3ccccc23)cc1 | 26.1 µM | 25.3 µM | 21 µM | 25.4 µM | 32.3 µM | 23 µM | 18.5 µM | 22.2 µM | – | 12 µM | 12.7 µM | 5.52 µM | 12.3 µM | 14.3 µM | 10.9 µM | 4.78 µM | – | 5.11 µM | 13.3 µM | 41.4 µM
Cc1cccc2c(=O)c3c(sc12)c(NCCCNCCO)nc1ccccc13 | 3.4 µM | 3.03 µM | 3.24 µM | 2.76 µM | 3.13 µM | 3.09 µM | – | 2.55 µM | – | 1.75 µM | 1.51 µM | 1.21 µM | 1.38 µM | 1.66 µM | 1.71 µM | – | – | 1.19 µM | 1.29 µM | 2.75 µM
